Reference: patent US11278595B2, “Peptides comprising non-natural amino acids and methods of making and using the same” (Longevity Biotech, Inc., priority 2013, dated 2022)
Numbered stars: 1 amine (or outer) side, 2 acyl side, 3 side chain; on linkers, the order of the positions; unused ones are H or OH. Square brackets hold non-standard residues; d marks the D form. Peptide text beside a SMILES is read from it. ξ: configuration not given here. ξ(4-Aminopyrrolidine-3-CO) = O=C(C1CNCC1N[*:1])[*:2]; X3 = O=C(C1CCCC1N[*:1])[*:2]; β3hK = NCCCC[C@H](N)CC(=O)O; βAla = NCCC(=O)O

Experiments:
[1] = system: protease; test: In vitro protease stability assay; type: in vitro ADME; conditions: FIG. 1; compared to Ro 25-1553 (one lactam bridge)
Procedure: In Vitro Stability Assay: Stock solutions of the both the naturally occurring peptides as well as peptide analogs are prepared at a concentration of 250 μM (based on UV absorbance) in a 2% DMSO solution of appropriate buffering conditions. Standard solution of proteinase K in addition to other common animal proteases (i.e. Cathepsins, Trypsins, dipeptidyl peptidase IV and chymotrypsin) were prepared at the following concentrations in appropriate buffers separately: Protease K: 250 μg/ml, Chymotrypsin 25 μg/mL and DPP-IV 40 units/ml. For a Protease K assay, the following recipe was followed: 1 μL enzyme was added to 5 μL peptide analog in 44 μL PBS. […] 50 μL of the resulting quenched reaction are then injected onto an analytical reverse phase HPLC, and the amount of starting peptide present quantified by integration of the appropriate chromatogram peak via absorbance at either 220 or 280 nm. […] Half-lives are determined by fitting time dependent peptide concentration to an exponential decay using GraphPad Prism. Samples for some time points will be analyzed by mass spectrometery, and the products observed are used to identify amide bonds cleaved in the course of the reaction. The relative stability enhancement is determined through the comparison of the various analogs with its naturally occurring peptide counterpart. […]

[2] = system: dopaminergic neurons (TH+/Nissl+) in the SN; test: Parkinson's disease (MPTP) model, adoptive transfer of splenocytes from drug-treated donors; type: in vivo; conditions: MPTP mice; donors 15 ug/day/5 days; FIG. 5
Procedure: Parkinson's Disease (PD) Model (not prophetic): Male C57/BL6 mice, 8-12 w old, housed in the IACUC approved housing were administered an analog described herein as well as a pharmaceutically acceptable carrier for five days at a dose between (0.1 nM and 100 nM). Thereafter, SPC and Tregs from the mice are harvested and then transferred to another set of MPTP intoxicated mice using the following protocol.
Immediately following the final dose, mice were sacrificed, and single-cell suspensions were prepared from inguinal lymph nodes and spleens. […] As determined by flow cytometric analysis, populations of Tregs and Teffs were consistently […] using this method (12). […]
Mice were postmortem transcardially perfused with PBS, followed by 4% para-formaldehyde (Sigma-Aldrich). […] Fluorojade C (FJ-C) staining (Millipore, Billerica, Mass.) was performed on adjacent sections, according to the manufacturer's protocol, to assess de-generating neurons and was quantified using ImageJ. Overall, dopaminergic neuron survival was assessed 7 d following MPTP intoxication and resolution of cell death processes with polyclonal Abs to mouse tyrosine hydroxylase (TH; 1:1000; EMD Chemicals/Calbiochem, San Diego, Calif.) and were counterstained for Nissl substance by thionin staining. […] Quantitation of striatal TH (1:500; EMD Chemicals/Calbiochem, Gibbstown, N.J.) was performed by densitometric analysis. […]

[3] = system: anti-CD3 stimulated naïve CD4+CD25− T cells; test: Inhibition assay of suppressive function of Treg from treated donor mice; type: cell-based; conditions: compared to PBS Treg populations; 1:1 Treg to responder ratio; donors injected daily/5 days/i.p.
Procedure: Immediately following the final dose, mice were sacrificed, and single-cell suspensions were prepared from inguinal lymph nodes and spleens. CD4+ T cell populations from spleens and lymph nodes were enriched by negative selection with CD4-enrichment columns (R&D Systems, Minneapolis, Minn.), followed by CD25-PE positive selection with AutoMACS (Miltenyi Biotec, Auburn, Calif.). As determined by flow cytometric analysis, populations of Tregs and Teffs were consistently […] using this method (12). T cells were cultured in complete RPMI 1640 (RPMI 1640 [Invitrogen, Carlsbad, Calif.] supplemented with 10% FBS, 2 mM L-gluta-mine, 25 mM HEPES, 1 mM sodium pyruvate, […] nonessential amino acids, […] 2-ME, 100 U/ml penicillin, and […] streptomycin [Mediatech, Manassas, Va.]) in the presence of anti-CD3 (145-2C11; BD Pharmingen, San Diego, Calif.), 4YSyn, or N-4YSyn. […]
To assess whether VIP, LBT-V101 (SEQ ID NO: 22), LBT-V218 (SEQ ID NO: 18) and PBS treated splenocytes (SPC) suppress effector T cell proliferative responses, we evaluated SPC co-cultures from VIP-treated donors for their proliferative capacity in the presence of either anti-CD3. […] To test this hypothesis, we evaluated CD4+CD25+CD62Llow Treg isolated from naïve and VIP-treated mice for their capacity to inhibit CD3-mediated proliferation of CD4+CD25− naïve T cells. […]

Molecule | in-vitro protease stability [1] | neuroprotection after adoptive transfer of splenocytes from drug-treated donors [2] | suppressive capacity of Treg on T cell proliferation [3]
CC(=O)N[C@@H](Cc1c[nH]cn1)C(=O)NC1CCCC1C(=O)N[C@@H](CC(=O)O)C(=O)N[C@@H](C)C(=O)NC1CCCC1C(=O)N[C@@H](Cc1ccccc1)C(=O)N[C@H](C(=O)N[C@@H](CCC(=O)O)C(=O)N[C@@H](CC(N)=O)C(=O)N[C@@H](Cc1ccc(O)cc1)C(=O)N[C@H](C(=O)N[C@@H](CCCCN)C(=O)N[C@@H](CC(C)C)C(=O)N[C@@H](CCCNC(=N)N)C(=O)N[C@@H](CCCCN)C(=O)N[C@@H](CCC(N)=O)C(=O)N[C@@H](CC(C)C)C(=O)N[C@@H](C)C(=O)N[C@@H](C)C(=O)NC1CNCC1C(=O)N[C@@H](CCCCN)C(=O)N[C@@H](Cc1ccc(O)cc1)C(=O)NC1CCCC1C(=O)N[C@@H](CC(N)=O)C(=O)N[C@@H](CC(=O)O)C(=O)N[C@@H](CC(C)C)C(=O)N[C@@H](CCCCN)CC(=O)N[C@@H](CCCCN)C(=O)NCC(=O)NCCC(=O)N[C@H](C(N)=O)[C@@H](C)O)[C@@H](C)O)[C@@H](C)O (stereo partly drawn) [LBT-V208, Ac-HxDAxFTENYTKLRKQLAAzKYxNDLkKGgT] (Ac-H[X3]DA[X3]FTENYTKLRKQLAA[ξ(4-Aminopyrrolidine-3-CO)]KY[X3]NDL[β3hK]KG[βAla]T-NH2) | stability is greater | – | –
HSDAVFTDNYTRLRKQMAVKKYLNSILN [VIP] | – | neuroprotective | enhanced suppressive capacity
